According to article PMC8128076 (RSC Medicinal Chemistry, 2021):
Where two headings read alike, the source gives them in different places.

Columns and labels:
mTOR [1] = molecular target: T1, mTOR (Homo sapiens, UniProt P42345); assay: LanthaScreen TR-FRET displacement binding assay, mTOR
human MDR1 (P-gp) = assay: in vitro; details: dog, MDCK-MDR1
[2] = test system: phosphorylated S6 ribosomal protein [pS6, Ser235/236]; details: read-out: Cellular assays IC50 pS6 S235/236; A2058 melanoma cells; previously reported, ref [14]; cited from earlier work
PI3Kα (p110α) = PI3Kα (p110α) (Homo sapiens, UniProt P42336); details: read-out: In vitro binding assays Ki PI3Kα; TR-FRET displacement, mean ± SD; previously reported, ref [14]; cited from earlier work
mTOR [3] = molecular target: T1, mTOR; details: previously reported, ref [14], cited from earlier work; for SI (selectivity index), Ki(PI3Kα)/Ki(mTOR): mTOR over PI3Kα

T1 sequence (P42345 1360-2549): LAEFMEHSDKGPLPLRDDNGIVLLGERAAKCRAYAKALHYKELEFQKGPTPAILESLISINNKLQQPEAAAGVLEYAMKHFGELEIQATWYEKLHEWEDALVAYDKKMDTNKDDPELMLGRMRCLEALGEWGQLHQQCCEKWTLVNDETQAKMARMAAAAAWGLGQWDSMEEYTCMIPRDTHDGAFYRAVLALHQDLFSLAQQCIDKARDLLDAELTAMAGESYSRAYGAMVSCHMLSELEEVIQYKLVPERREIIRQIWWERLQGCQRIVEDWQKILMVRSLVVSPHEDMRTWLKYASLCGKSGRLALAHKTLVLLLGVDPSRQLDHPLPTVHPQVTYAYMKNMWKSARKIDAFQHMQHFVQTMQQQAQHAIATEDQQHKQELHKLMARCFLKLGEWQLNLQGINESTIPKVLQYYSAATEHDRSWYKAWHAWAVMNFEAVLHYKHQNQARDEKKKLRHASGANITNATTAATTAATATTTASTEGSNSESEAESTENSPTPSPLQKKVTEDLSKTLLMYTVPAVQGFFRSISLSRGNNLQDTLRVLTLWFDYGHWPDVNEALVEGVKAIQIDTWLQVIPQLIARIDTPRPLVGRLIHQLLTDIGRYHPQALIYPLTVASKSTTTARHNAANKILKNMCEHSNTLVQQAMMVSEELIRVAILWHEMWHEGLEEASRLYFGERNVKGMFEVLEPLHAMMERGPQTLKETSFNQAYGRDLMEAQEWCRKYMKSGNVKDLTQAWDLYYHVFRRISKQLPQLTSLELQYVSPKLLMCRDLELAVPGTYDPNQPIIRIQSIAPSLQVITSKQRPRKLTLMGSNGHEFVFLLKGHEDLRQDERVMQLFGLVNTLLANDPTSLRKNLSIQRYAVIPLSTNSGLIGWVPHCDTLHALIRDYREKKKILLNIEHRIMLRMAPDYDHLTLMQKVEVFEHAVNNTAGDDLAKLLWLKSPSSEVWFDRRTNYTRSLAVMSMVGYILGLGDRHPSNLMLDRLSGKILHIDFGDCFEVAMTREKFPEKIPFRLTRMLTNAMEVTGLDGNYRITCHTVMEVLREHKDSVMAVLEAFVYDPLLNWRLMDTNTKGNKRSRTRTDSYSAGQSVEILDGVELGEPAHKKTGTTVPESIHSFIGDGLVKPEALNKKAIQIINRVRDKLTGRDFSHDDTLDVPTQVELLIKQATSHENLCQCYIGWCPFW
Chain of PI3Kα (p110α) (P42336 whole entry): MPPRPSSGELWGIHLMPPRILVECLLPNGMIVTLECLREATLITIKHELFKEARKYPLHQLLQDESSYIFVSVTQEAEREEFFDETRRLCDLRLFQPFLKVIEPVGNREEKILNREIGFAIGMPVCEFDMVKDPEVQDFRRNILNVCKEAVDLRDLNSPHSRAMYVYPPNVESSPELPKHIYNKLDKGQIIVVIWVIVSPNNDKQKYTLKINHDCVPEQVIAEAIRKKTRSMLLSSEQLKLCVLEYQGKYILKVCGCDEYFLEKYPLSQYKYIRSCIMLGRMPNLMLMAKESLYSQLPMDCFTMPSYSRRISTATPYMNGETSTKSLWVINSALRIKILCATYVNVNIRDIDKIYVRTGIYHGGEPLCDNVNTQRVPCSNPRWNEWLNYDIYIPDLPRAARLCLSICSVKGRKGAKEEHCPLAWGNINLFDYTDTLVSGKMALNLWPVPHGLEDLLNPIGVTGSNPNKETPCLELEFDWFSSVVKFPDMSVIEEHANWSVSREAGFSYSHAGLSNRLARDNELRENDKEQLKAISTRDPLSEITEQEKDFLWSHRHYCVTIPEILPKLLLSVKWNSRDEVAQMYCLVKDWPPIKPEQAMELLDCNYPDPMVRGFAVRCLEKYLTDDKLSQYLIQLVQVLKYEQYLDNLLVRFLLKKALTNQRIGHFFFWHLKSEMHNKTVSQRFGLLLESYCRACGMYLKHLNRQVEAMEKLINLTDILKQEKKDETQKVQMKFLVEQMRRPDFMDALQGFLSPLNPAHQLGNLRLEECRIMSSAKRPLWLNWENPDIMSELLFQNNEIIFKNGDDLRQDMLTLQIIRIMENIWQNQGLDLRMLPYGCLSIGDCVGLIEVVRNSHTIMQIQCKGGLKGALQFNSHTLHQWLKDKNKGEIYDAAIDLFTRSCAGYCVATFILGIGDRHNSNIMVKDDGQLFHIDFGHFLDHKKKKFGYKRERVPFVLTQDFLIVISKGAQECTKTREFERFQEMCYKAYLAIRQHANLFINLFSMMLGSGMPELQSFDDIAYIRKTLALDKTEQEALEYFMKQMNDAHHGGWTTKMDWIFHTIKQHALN
Chain of PI3Kα (p110α) (P27986 whole entry partner): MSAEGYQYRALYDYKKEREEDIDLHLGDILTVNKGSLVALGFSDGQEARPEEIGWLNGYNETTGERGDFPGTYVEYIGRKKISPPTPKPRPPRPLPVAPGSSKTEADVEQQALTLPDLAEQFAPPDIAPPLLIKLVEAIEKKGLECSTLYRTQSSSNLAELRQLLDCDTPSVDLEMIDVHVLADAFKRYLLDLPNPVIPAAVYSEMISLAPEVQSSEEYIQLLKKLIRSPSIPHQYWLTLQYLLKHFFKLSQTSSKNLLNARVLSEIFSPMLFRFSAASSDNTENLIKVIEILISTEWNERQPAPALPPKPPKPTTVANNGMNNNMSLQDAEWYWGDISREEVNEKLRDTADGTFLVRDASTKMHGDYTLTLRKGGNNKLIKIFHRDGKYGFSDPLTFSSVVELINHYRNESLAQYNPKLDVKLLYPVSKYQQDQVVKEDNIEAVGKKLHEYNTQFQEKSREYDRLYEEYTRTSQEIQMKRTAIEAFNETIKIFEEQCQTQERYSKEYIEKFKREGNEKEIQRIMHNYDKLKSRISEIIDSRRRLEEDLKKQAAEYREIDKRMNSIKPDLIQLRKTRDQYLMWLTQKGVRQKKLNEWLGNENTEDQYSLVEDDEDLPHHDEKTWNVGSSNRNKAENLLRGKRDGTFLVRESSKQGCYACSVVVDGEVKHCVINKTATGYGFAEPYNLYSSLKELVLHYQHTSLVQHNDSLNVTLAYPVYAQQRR

| Papp (human MDR1 (P-gp)) | Structure (SMILES) | IC50 [2] | Ki (PI3Kα (p110α)) | SI (selectivity index), Ki(PI3Kα)/Ki(mTOR) (mTOR [3]) | further results |
| --- | --- | --- | --- | --- | --- |
| – | C[C@@H]1COCCN1c1nc(-c2nc(N)ns2)nc2c1C[C@@H]1COCCN21 [Compound 2] | – | – | – | fold decrease in mTOR affinity (mTOR [1]; 1,2,4-thiadiazole 2 versus pyrimidine 1): > 10 fold |
| < 60 ×10⁻⁶ cm/s | C[C@@H]1COCCN1c1nc(-c2nnc(N)s2)nc2c1C[C@@H]1COCCN21 [Compound 4] | – | – | – | – |
| – | C[C@@H]1COCCN1c1nc(-c2ccc(N)nc2)nc2c1C[C@@H]1COCCN21 [Compound 5] | 61 ± 12 nM | 2150 ± 400 nM | 215 | Ki (mTOR [3]; read-out: In vitro binding assays Ki mTOR, TR-FRET displacement, mean ± SD): 10 ± 1.6 nM |
| < 60 ×10⁻⁶ cm/s | C[C@@H]1COCCN1c1nc(-c2cnc(N)s2)nc2c1C[C@@H]1COCCN21 [Compound 6] | – | – | – | – |
| – | C[C@@H]1COCCN1c1nc(-c2cnc(N)nc2C(F)F)nc2c1C[C@@H]1COCCN21 [Compound 8] | – | – | – | SI (selectivity index), Ki(PI3Kα)/Ki(mTOR) (mTOR [1]; mTOR over PI3Kα): < 1 |
| < 60 ×10⁻⁶ cm/s | C[C@@H]1COCCN1c1nc(-c2cnc(N)cn2)nc2c1C[C@@H]1COCCN21 [Compound 12b, reference compound] | 60 ± 13 nM | 1690 ± 277 nM | 212 | – |
